The source of these data is patent US20250144223A1, “PROTEIN DEGRADATION COMPOUND BASED ON NAMPT TARGET PROTEIN AND APPLICATION THEREOF” (GLUETACS THERAPEUTICS (SHANGHAI) CO., LTD., priority 2021, published 2025).

pIC50: −log10 of the molar value.

This experiment has as its system Jurkat. The experiment can be described thus: CellTiter-Glo Luminescent Cell Viability Assay, half inhibitory concentration (IC50) on tumor cell proliferation. The experiment is classed as cell-based. Conditions: Homo sapiens, Jurkat cells, 72 h treatment. As to the method: The tumor cells used herein were cultured in a cell culture medium at 37° C. in an incubator with 5% CO2, where the cell culture medium was supplemented with 10% FBS, as well as penicillin at a final concentration of 100 U/mL and streptomycin at a final concentration of 100 μg/mL. Prior to experimentation, all cells used were identified as correct cells by STR cells, and were negative for mycoplasma through routine testing.
IC50 values of the compounds of the present disclosure (including the compounds in Table 1 and compounds of examples) were measured using the CellTiter-Glo® Luminescent Cell Viability Assay kit from Promega Corporation. Assay details are as follows: Cells were seeded in 100 μL RPMI1640 medium containing serum at a density of 20,000 cells/well. After 24 h, the inoculated cells were treated with the compounds of the present disclosure which were serially diluted. After the cells were treated with the compounds of the present disclosure for 72 h, the CellTiter-Glo® reagent was added to the culture medium for cell viability assessment according to the instructions provided with the kit. DMSO served as the negative control, and FK866 inhibitor was used as the positive control, both treated with the same protocol as the compounds of the present disclosure. The growth inhibition of the compounds of the present disclosure on cells was plotted by Prism Graphpad software, and the IC50 values of the compounds of the present disclosure were calculated therefrom.
One may read the pIC50 as the IC50 on a negative log10 scale, so that one unit is a factor of ten. A higher pIC50 goes with a low IC50. Take `O=C(/C=C/c1cccnc1)NCCCCC1CCN(C(=O)c2ccc(N3CCNCC3)cc2)CC1` [SIAIS630006, (E)-N-(4-(1-(4-(piperazin-1-yl)benzoyl)piperidin-4-yl)butyl)-3-(pyridin-3-yl)acrylamide]: the pIC50 is 8.52. For `Cc1ncsc1-c1ccc(CNC(=O)[C@@H]2C[C@@H](O)CN2C(=O)[C@@H](NC(=O)CCCCC(=O)N2CCN(c3ccc(C(=O)N4CCC(CCCCNC(=O)/C=C/c5cccnc5)CC4)cc3)CC2)C(C)(C)C)cc1` [SIAIS630007, (2S,4R)-1-((S)-3,3-dimethyl-2-(6-oxo-6-(4-(4-(4-(4-((E)-3-(pyridin-3-yl)acrylamido)butyl)piperidine-1-carbonyl)phenyl)piperazin-1-yl)hexanamido)butanoyl)-4-hydroxy-N-(4-(4-methylthiazol-5-yl)benzyl)pyrrolidine-2-carboxamide] the value was 6.96. `Cc1ncsc1-c1ccc(CNC(=O)[C@@H]2C[C@@H](O)CN2C(=O)[C@@H](NC(=O)CCCCCCCCCCCCCCC(=O)N2CCN(c3ccc(C(=O)N4CCC(CCCCNC(=O)/C=C/c5cccnc5)CC4)cc3)CC2)C(C)(C)C)cc1` [SIAIS630008, (2S,4R)-1-((S)-3,3-dimethyl-2-(16-oxo-16-(4-(4-(4-(4-((E)-3-(pyridin-3-yl)acrylamido)butyl)piperidine-1-carbonyl)phenyl)piperazin-1-yl)hexadecanamido)butanoyl)-4-hydroxy-N-(4-(4-methylthiazol-5-yl)benzyl)pyrrolidine-2-carboxamide] gave a pIC50 of 7.02. For `O=C(/C=C/c1cccnc1)NCCCCC1CCN(C(=O)c2ccc(N3CCN(C(=O)CCNc4cccc5c4C(=O)N(C4CCC(=O)NC4=O)C5=O)CC3)cc2)CC1` (stereo not drawn) [SIAIS630009, (E)-N-(4-(1-(4-(4-(3-((2-(2,6-dioxopiperidin-3-yl)-1,3-dioxoisoindolin-4-yl)amino)propanoyl)piperazin-1-yl)benzoyl)piperidin-4-yl)butyl)-3-(pyridin-3-yl)acrylamide] the value was 8.64. For `O=C(/C=C/c1cccnc1)NCCCCC1CCN(C(=O)c2ccc(N3CCN(C(=O)CCCNc4cccc5c4C(=O)N(C4CCC(=O)NC4=O)C5=O)CC3)cc2)CC1` (stereo not drawn) [SIAIS630010, (E)-N-(4-(1-(4-(4-(4-((2-(2,6-dioxopiperidin-3-yl)-1,3-dioxoisoindolin-4-yl)amino)butanoyl)piperazin-1-yl)benzoyl)piperidin-4-yl)butyl)-3-(pyridin-3-yl)acrylamide] the value was 9.46. Consider `O=C(/C=C/c1cccnc1)NCCCCC1CCN(C(=O)c2ccc(N3CCN(C(=O)CCCCNc4cccc5c4C(=O)N(C4CCC(=O)NC4=O)C5=O)CC3)cc2)CC1` (stereo not drawn) [SIAIS630011, (E)-N-(4-(1-(4-(4-(5-((2-(2,6-dioxopiperidin-3-yl)-1,3-dioxoisoindolin-4-yl)amino)pentanoyl)piperazin-1-yl)benzoyl)piperidin-4-yl)butyl)-3-(pyridin-3-yl)acrylamide], for which the pIC50 is 8.55. For `O=C(/C=C/c1cccnc1)NCCCCC1CCN(C(=O)c2ccc(N3CCN(C(=O)CCCCCCNc4cccc5c4C(=O)N(C4CCC(=O)NC4=O)C5=O)CC3)cc2)CC1` (stereo not drawn) [SIAIS630012, (E)-N-(4-(1-(4-(4-(7-((2-(2,6-dioxopiperidin-3-yl)-1,3-dioxoisoindolin-4-yl)amino)heptanoyl)piperazin-1-yl)benzoyl)piperidin-4-yl)butyl)-3-(pyridin-3-yl)acrylamide] the value was 8.55; for `O=C(/C=C/c1cccnc1)NCCCCC1CCN(C(=O)c2ccc(N3CCN(C(=O)CSc4cccc5c4CN(C4CCC(=O)NC4=O)C5=O)CC3)cc2)CC1` (stereo not drawn) [SIAIS630013, (E)-N-(4-(1-(4-(4-(2-((2-(2,6-dioxopiperidin-3-yl)-1-oxoisoindolin-4-yl)thio)acetyl)piperazin-1-yl)benzoyl)piperidin-4-yl)butyl)-3-(pyridin-3-yl)acrylamide], 6.72. For `O=C(/C=C/c1cccnc1)NCCCCC1CCN(C(=O)c2ccc(N3CCN(C(=O)CCCCSc4cccc5c4CN(C4CCC(=O)NC4=O)C5=O)CC3)cc2)CC1` (stereo not drawn) [SIAIS630014, (E)-N-(4-(1-(4-(4-(5-((2-(2,6-dioxopiperidin-3-yl)-1-oxoisoindolin-4-yl)thio)pentanoyl)piperazin-1-yl)benzoyl)piperidin-4-yl)butyl)-3-(pyridin-3-yl)acrylamide] the value was 8.70; for `O=C(/C=C/c1cccnc1)NCCCCN1CCN(C(=O)c2ccc(N3CCNCC3)cc2)CC1` [SIAIS630020, (E)-N-(4-(4-(4-(piperazin-1-yl)benzoyl)piperazin-1-yl)butyl)-3-(pyridin-3-yl)acrylamide], 6.07; for `O=C(/C=C/c1cccnc1)NCCCCC1CCN(C(=O)c2ccc(N3CCN(C(=O)CCCCCSc4cccc5c4CN(C4CCC(=O)NC4=O)C5=O)CC3)cc2)CC1` (stereo not drawn) [SIAIS630037, (E)-N-(4-(1-(4-(4-(6-((2-(2,6-dioxopiperidin-3-yl)-1-oxoisoindolin-4-yl)thio)hexanoyl)piperazin-1-yl)benzoyl)piperidin-4-yl)butyl)-3-(pyridin-3-yl)acrylamide], 8.94.

In turn, `O=C(/C=C/c1cccnc1)NCCCCC1CCN(C(=O)c2ccc(N3CCN(C(=O)COCCSc4cccc5c4CN(C4CCC(=O)NC4=O)C5=O)CC3)cc2)CC1` (stereo not drawn) [SIAIS630038, (E)-N-(4-(1-(4-(4-(2-(2-((2-(2,6-dioxopiperidin-3-yl)-1-oxoisoindolin-4-yl)thio)ethoxy)acetyl)piperazin-1-yl)benzoyl)piperidin-4-yl)butyl)-3-(pyridin-3-yl)acrylamide] gave a pIC50 of 7.61. In turn, `O=C(/C=C/c1cccnc1)NCCCCC1CCN(C(=O)c2ccc(N3CCN(C(=O)COCCOCCSc4cccc5c4CN(C4CCC(=O)NC4=O)C5=O)CC3)cc2)CC1` (stereo not drawn) [SIAIS630039, (E)-N-(4-(1-(4-(4-(2-(2-(2-((2-(2,6-dioxopiperidin-3-yl)-1-oxoisoindolin-4-yl)thio)ethoxy)ethoxy)acetyl)piperazin-1-yl)benzoyl)piperidin-4-yl)butyl)-3-(pyridin-3-yl)acrylamide] had a pIC50 of 8.10. Compound `O=C(/C=C/c1cccnc1)NCCCCC1CCN(C(=O)c2ccc(N3CCN(CCCCC#Cc4cccc5c4CN(C4CCC(=O)NC4=O)C5=O)CC3)cc2)CC1` (stereo not drawn) [SIAIS630119, (E)-N-(4-(1-(4-(4-(6-(2-(2,6-dioxopiperidin-3-yl)-1-oxoisoindolin-4-yl)hex-5-yn-1-yl)piperazin-1-yl)benzoyl)piperidin-4-yl)butyl)-3-(pyridin-3-yl)acrylamide] gave a pIC50 of 8.52. On to `O=C(/C=C/c1cccnc1)NCCCCC1CCN(C(=O)c2ccc(N3CCN(CCCCCCCC#Cc4cccc5c4CN(C4CCC(=O)NC4=O)C5=O)CC3)cc2)CC1` (stereo not drawn) [SIAIS630122, (E)-N-(4-(1-(4-(4-(9-(2-(2,6-dioxopiperidin-3-yl)-1-oxoisoindolin-4-yl)non-8-yn-1-yl)piperazin-1-yl)benzoyl)piperidin-4-yl)butyl)-3-(pyridin-3-yl)acrylamide], for which the pIC50 is 7.55. For `O=C(/C=C/c1cccnc1)NCCCCC1CCN(C(=O)c2ccc(N3CCN(CCCCSc4cccc5c4CN(C4CCC(=O)NC4=O)C5=O)CC3)cc2)CC1` (stereo not drawn) [SIAIS630123, (E)-N-(4-(1-(4-(4-(4-((2-(2,6-dioxopiperidin-3-yl)-1-oxoisoindolin-4-yl)thio)butyl)piperazin-1-yl)benzoyl)piperidin-4-yl)butyl)-3-(pyridin-3-yl)acrylamide] the value was 8.60; for `O=C(/C=C/c1cccnc1)NCCCCC1CCN(C(=O)c2ccc(N3CCN(CCCC#Cc4cccc5c4CN(C4CCC(=O)NC4=O)C5=O)CC3)cc2)CC1` (stereo not drawn) [SIAIS630129, (E)-N-(4-(1-(4-(4-(5-(2-(2,6-dioxopiperidin-3-yl)-1-oxoisoindolin-4-yl)pent-4-yn-1-yl)piperazin-1-yl)benzoyl)piperidin-4-yl)butyl)-3-(pyridin-3-yl)acrylamide], 8.53; for `O=C(/C=C/c1cccnc1)NCCCCC1CCN(C(=O)c2ccc(N3CCN(CCSc4cccc5c4CN(C4CCC(=O)NC4=O)C5=O)CC3)cc2)CC1` (stereo not drawn) [SIAIS630130, (E)-N-(4-(1-(4-(4-(2-((2-(2,6-dioxopiperidin-3-yl)-1-oxoisoindolin-4-yl)thio)ethyl)piperazin-1-yl)benzoyl)piperidin-4-yl)butyl)-3-(pyridin-3-yl)acrylamide], 7.62. For `O=C(/C=C/c1cccnc1)NCCCCC1CCN(C(=O)c2ccc(N3CCN(CCCSc4cccc5c4CN(C4CCC(=O)NC4=O)C5=O)CC3)cc2)CC1` (stereo not drawn) [SIAIS630131, (E)-N-(4-(1-(4-(4-(3-((2-(2,6-dioxopiperidin-3-yl)-1-oxoisoindolin-4-yl)thio)propyl)piperazin-1-yl)benzoyl)piperidin-4-yl)butyl)-3-(pyridin-3-yl)acrylamide] the value was 8.36.

`O=C(/C=C/c1cccnc1)NCCCCC1CCN(C(=O)c2ccc(N3CCN(CCCCCSc4cccc5c4CN(C4CCC(=O)NC4=O)C5=O)CC3)cc2)CC1` (stereo not drawn) [SIAIS630132, (E)-N-(4-(1-(4-(4-(5-((2-(2,6-dioxopiperidin-3-yl)-1-oxoisoindolin-4-yl)thio)pentyl)piperazin-1-yl)benzoyl)piperidin-4-yl)butyl)-3-(pyridin-3-yl)acrylamide] gave a pIC50 of 8.20.

For the compound `O=C(/C=C/c1cccnc1)NCCCCC1CCN(C(=O)c2ccc(N3CCN(CCCCCCSc4cccc5c4CN(C4CCC(=O)NC4=O)C5=O)CC3)cc2)CC1` (stereo not drawn) [SIAIS630133, (E)-N-(4-(1-(4-(4-(6-((2-(2,6-dioxopiperidin-3-yl)-1-oxoisoindolin-4-yl)thio)hexyl)piperazin-1-yl)benzoyl)piperidin-4-yl)butyl)-3-(pyridin-3-yl)acrylamide], the pIC50 was 8.20.
